Data from paper PMC8103899, “Allyl Isothiocyanate: A TAS2R38 Receptor-Dependent Immune Modulator at the Interface Between Personalized Medicine and Nutrition” (Frontiers in Immunology, 2021).
Values belong to the compound of their own block, whether it stands above or below them.

What was measured:
TAS2R38-PAV receptor = tested on: TAS2R38-PAV receptor; parameters: method as in PMID 20022913; conditions: cited from earlier work
TRPA1 = tested on: TRPA1; parameters: method as in PMID 21763756; conditions: calcium assays; cited from earlier work
[1] = Human food intervention: AITC metabolite plasma levels after mustard intake (LC-ESI-MS/MS); type: in vivo; conditions: for detection in plasma: human volunteers after mustard preparation (data not shown); for blood plasma level: human volunteers
Procedure: AITC metabolite quantification was carried out in blood plasma samples derived from an intervention study at the University Medical Center in Freiburg, Germany. Samples were from 4 healthy young adults (3 females, 1 male, aged between 30-40 years) having a normal BMI, and were non-smokers. Each subject consumed one time 10 g of a commercially available mustard preparation ([…] Munich, Germany) containing 24.74 ± 1.76 μmol/g fresh weight preformed AITC on an empty stomach with optional consumption of white bread. The intervention was preceded by a 48 h wash-out phase consisting of a glucosinolate/ITC-free diet. After 30 min and optionally 60 min, blood was collected by venipuncture in serum tubes and centrifuged at 2000g for 10 min, 4°C to obtain serum. Subsequently, TFA was added and the samples frozen at -80°C. The preparation of serum samples (300 μL serum and 100 μL TFA) was conducted as described by Kühn et al. ([37]). The frozen samples were thawed, vortexed (1 min) and centrifuged (4 °C, 10 min, 20.854 x g). The supernatant was transferred to SPE cartridges. Prior to transferring, SPE cartridges were conditioned with acetonitrile (ACN, 3 mL) and equilibrated with water (3 mL). After sample application, the cartridges were washed with formic acid (FA, 3 mL, 0.1% in water) and the metabolites were eluted with FA (3 mL, 0.1% in ACN:water, 90:10, v/v). […] The samples were re-dissolved in 100 μL FA (0.1% in ACN:water, 90:10, v/v). Sample aliquots of 5 μL were injected into the LC-ESI-MS/MS system. LC-ESI-MS/MS analysis was performed on an API4000 triple quadrupole mass spectrometer (AB Sciex Germany GmbH, Darmstadt, Germany) equipped with an Agilent 1200 LC system (Agilent Technologies Deutschland GmbH & Co. KG, Waldbronn, Germany). For data acquisition and processing the software Analyst 1.6.1 (AB Sciex Germany GmbH, Darmstadt, Germany) was used. […] AITC-CysGly; AITC-Cys; AITC-NAC) was conducted according to Platz et al. ([38]) with minor modifications. The separation was performed on a Kinetex C18 column (Phenomenex, 5 μm, 100 Å, 150 x 2.1 mm). The autosampler operated at 4°C and the set temperature for the oven was 20°C. A constant flow of 300 μL/min was used for the mobile phase which consisted of 0.1% FA in water (A) and 0.1% FA in ACN (B). […] In order to equilibrate the column, A was increased to 90% and held for 5 min. The relevant MS parameters include an entrance potential of -10 V, a desolvation gas temperature of 450°C, ion spray potential of -4.5 kV, gas 1 and gas 2 at 46 psi and a curtain gas pressure at 10 psi.

TAS2R38 receptor = biological target: T1, TAS2R38 receptor (Homo sapiens, UniProt P59533, A49P/I296V); assay: Calcium flux assay in human PBMC (flow cytometry, Fluo-4 AM); conditions: human PAV/PAV monocytes
T1 sequence (P59533 1-333 A49P/I296V): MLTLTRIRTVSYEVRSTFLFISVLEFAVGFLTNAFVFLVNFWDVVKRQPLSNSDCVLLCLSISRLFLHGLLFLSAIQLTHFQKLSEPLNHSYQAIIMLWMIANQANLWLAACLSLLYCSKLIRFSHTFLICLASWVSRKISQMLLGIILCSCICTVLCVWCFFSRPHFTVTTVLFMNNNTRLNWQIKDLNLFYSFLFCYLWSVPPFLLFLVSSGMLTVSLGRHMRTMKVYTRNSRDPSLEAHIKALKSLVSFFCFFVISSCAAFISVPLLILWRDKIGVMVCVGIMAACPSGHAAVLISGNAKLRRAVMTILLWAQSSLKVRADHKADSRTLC

[2] = tested on: intracellular calcium release; parameters: method as in PMID 8393876; conditions: 1% DMSO; cited from earlier work
TAS2R38-PAV = tested on: TAS2R38-PAV; parameters: method as in PMID 28902853; conditions: transfected HEK293 cells (~0.9% DMSO solution), approximately; cited from earlier work
[3] = tested on: extracellular calcium influx in monocytes; assay: Calcium flux in PAV/PAV monocytes after EDTA pre-treatment before AITC; conditions: 0.5 mM EDTA
TAS2R38 = tested on: TAS2R38; parameters: method as in PMID 23041624; conditions: sinonasal cells, TAS2R38 genotype dependent; cited from earlier work
PLC-β2 = PLC-β2 (Homo sapiens, UniProt Q00722); assay: Calcium flux in PAV/PAV monocytes after PLC-β2 antagonist pre-treatment before AITC; conditions: cell pretreatment with U73122 for 30 min
Chain of PLC-β2 (Q00722 whole entry): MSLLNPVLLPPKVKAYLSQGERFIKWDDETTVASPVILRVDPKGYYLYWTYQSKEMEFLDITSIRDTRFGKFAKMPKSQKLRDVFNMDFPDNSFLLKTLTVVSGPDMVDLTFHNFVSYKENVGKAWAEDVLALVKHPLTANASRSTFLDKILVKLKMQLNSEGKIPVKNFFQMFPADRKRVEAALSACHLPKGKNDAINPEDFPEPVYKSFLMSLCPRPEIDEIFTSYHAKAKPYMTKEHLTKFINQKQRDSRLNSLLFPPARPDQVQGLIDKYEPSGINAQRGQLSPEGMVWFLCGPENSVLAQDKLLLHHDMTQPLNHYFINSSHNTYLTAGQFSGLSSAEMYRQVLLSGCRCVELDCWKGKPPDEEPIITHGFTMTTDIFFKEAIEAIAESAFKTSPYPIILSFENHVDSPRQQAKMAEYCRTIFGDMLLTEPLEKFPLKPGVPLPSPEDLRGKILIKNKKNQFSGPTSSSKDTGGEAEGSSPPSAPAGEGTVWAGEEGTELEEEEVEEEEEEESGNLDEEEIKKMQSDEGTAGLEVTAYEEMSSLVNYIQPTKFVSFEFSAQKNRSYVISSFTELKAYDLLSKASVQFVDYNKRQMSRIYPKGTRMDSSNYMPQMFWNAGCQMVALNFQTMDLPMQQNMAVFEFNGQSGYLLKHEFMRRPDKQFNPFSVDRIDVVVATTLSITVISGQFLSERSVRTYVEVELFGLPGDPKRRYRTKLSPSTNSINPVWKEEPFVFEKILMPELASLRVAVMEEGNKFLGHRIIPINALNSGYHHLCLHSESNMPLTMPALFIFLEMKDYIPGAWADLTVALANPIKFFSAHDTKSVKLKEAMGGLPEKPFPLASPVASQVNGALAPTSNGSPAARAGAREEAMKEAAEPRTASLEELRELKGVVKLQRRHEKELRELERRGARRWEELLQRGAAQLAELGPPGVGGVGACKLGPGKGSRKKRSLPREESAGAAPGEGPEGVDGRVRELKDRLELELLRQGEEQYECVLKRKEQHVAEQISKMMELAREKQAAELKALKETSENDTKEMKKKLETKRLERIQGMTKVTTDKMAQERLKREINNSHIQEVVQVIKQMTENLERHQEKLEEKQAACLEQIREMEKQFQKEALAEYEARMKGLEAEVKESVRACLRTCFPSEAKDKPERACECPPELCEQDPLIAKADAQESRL

TRPV1 = TRPV1 (Homo sapiens, UniProt Q8NER1); assay: Calcium flux in PAV/PAV monocytes after TRPV1 antagonist pre-treatment before AITC; type: cell-based
Chain of TRPV1 (Q8NER1 whole entry): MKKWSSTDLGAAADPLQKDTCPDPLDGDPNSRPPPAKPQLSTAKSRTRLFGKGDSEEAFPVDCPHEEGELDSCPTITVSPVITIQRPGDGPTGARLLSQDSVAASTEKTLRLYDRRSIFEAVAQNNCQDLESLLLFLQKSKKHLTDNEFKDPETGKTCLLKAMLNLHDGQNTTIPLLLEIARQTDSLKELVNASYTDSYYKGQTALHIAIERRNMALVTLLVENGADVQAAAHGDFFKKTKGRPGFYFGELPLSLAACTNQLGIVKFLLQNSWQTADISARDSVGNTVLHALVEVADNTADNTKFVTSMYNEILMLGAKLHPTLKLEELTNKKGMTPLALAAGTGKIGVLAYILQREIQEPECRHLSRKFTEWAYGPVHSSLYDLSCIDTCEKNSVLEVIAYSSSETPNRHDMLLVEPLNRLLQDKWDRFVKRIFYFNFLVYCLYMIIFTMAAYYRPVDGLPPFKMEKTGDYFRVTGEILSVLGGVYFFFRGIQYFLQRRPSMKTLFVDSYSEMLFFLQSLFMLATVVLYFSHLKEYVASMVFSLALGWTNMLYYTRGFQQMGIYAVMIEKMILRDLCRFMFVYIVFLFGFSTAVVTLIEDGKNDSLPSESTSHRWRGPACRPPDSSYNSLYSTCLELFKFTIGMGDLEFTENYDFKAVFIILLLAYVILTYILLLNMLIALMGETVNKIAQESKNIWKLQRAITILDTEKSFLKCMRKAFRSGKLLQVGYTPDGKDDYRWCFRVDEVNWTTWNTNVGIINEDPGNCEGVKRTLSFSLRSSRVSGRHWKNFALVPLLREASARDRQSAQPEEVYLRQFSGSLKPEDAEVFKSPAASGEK
Procedure: Baseline fluorescence was recorded for 60 sec.

[4] = tested on: LPS stimulated leukocytes; conditions: cited from earlier work
[5] = tested on: sinonasal epithelial cells; parameters: method as in PMID 24531552; conditions: cited from earlier work

SMILES: C=CCC(=NOS(=O)(=O)O)S[C@@H]1O[C@H](CO)[C@@H](O)[C@H](O)[C@H]1O (stereo in doubt) [sinigrin]
activation of TAS2R38 taster variant among 25 TAS2Rs (TAS2R38-PAV receptor; HEK293T-Gα16gust44 cells transiently transfected): selectively triggered the taster variant

SMILES: C=CCNC(=S)SC[C@H](N)C(=O)NCC(=O)O [AITC-CG]
detection in plasma [1]: No other AITC metabolites (AITC-GSH or AITC-CG) could be detected

SMILES: C=CCNC(=S)SC[C@H](NC(=O)CC[C@H](N)C(=O)O)C(=O)NCC(=O)O [AITC-GSH]
detection in plasma [1]: No other AITC metabolites (AITC-GSH or AITC-CG) could be detected

SMILES: C=CCNC(=S)SC[C@H](NC(C)=O)C(=O)O [AITC-NAC]
blood plasma level ([1]; 0.5 h after 10 g mustard preparation): 836.7 ± 67.7 nM
blood plasma level ([1]; 1 h after 10 g mustard preparation): 1001.0 ± 228.3 nM

effect on calcium release (TAS2R38 receptor; 0.1% DMSO): no effect
mean calcium increase compared to untreated cells (TAS2R38 receptor; starting from 1.5% DMSO, not statistically significant): 36%
SMILES: C[S+](C)[O-] [DMSO, Dimethyl sulfoxide]
calcium release [2]: significant calcium release
threshold concentration (TAS2R38-PAV): > 125 mM

SMILES: O=C(O)CN(CCN(CC(=O)O)CC(=O)O)CC(=O)O [EDTA]
effect on calcium influx triggered by AITC ([3]; 1 µM AITC): did not impact
reduction in calcium flux ([3]; 100 µM AITC): 67%

SMILES: C[S@@+]([O-])CCCCN=C=S [L-sulforaphane]
activation of the TAS2R38-PAV receptor (TAS2R38-PAV receptor): did not

SMILES: NC(=S)Nc1ccccc1 [PTC]
NO production (TAS2R38): stimulated

effect on AITC induced calcium release (PLC-β2): almost completely block
SMILES: COc1ccc2c(c1)CC[C@@H]1[C@@H]2CC[C@]2(C)[C@@H](NCCCCCCN3C(=O)C=CC3=O)CC[C@@H]12 [U73122]

effect on AITC mediated calcium release (TRPV1; capsazepine pretreatment, 1 µM AITC): not effected
SMILES: Oc1cc2c(cc1O)CN(C(=S)NCCc1ccc(Cl)cc1)CCC2 [capsazepine]
effect on AITC mediated calcium release (TRPV1; pretreatment 10 µM capsazepine, stimulation with 100 µM AITC): reduction of AITC mediated calcium release

SMILES: CC[N+](CC)(CC(=O)Nc1c(C)cccc1C)Cc1ccccc1 [denatonium]
multiple cytokine production, including TNF-α [4]: marked reduction
cytokine release [5]: marginal change

SMILES: S=C=NCCc1ccccc1 [phenylethyl ITC]
activation of the TAS2R38-PAV receptor (TAS2R38-PAV receptor): activated
